≈ marks a conversion by molar mass, not a printed value. Calls of active or inactive are those of the source. No cut-off for these calls is given here.
Experiments:
[1] = system: Acinetobacter baumannii; assay: Antimicrobial activity against Acinetobacter baumannii ATCC 19606 after 18 to 20 hrs by microbroth dilution method; format: functional; conditions: ATCC 19606 = CIP 70.34 = JCM 6841
[2] = system: Escherichia coli; assay: Antimicrobial activity against Escherichia coli D21 after 18 to 20 hrs by microbroth dilution method; format: functional
[3] = system: Pseudomonas aeruginosa; assay: Antimicrobial activity against Pseudomonas aeruginosa ATCC 27853 after 18 to 20 hrs by microbroth dilution method; format: functional
[4] = system: Pseudomonas syringae; assay: Antimicrobial activity against Pseudomonas syringae pv tabaci NCPPB 1918 after 18 to 20 hrs by microbroth dilution method; format: functional, Pseudomonas amygdali pv. tabaci
[5] = system: Priestia megaterium; assay: Antimicrobial activity against Bacillus megaterium Bm11 after 18 to 20 hrs by microbroth dilution method; format: functional
[6] = system: Staphylococcus aureus; assay: Antimicrobial activity against Staphylococcus aureus Cowan I after 18 to 20 hrs by microbroth dilution method; format: functional
[7] = system: Staphylococcus epidermidis; assay: Antimicrobial activity against Staphylococcus epidermidis ATCC 12228 after 18 to 20 hrs by microbroth dilution method; format: functional
[8] = system: Candida albicans; assay: Antimicrobial activity against Candida albicans ATCC 10231 after 18 to 20 hrs by microbroth dilution method; format: functional
[9] = system: Pichia kudriavzevii; assay: Antimicrobial activity against Candida krusei ATCC 6258 after 18 to 20 hrs by microbroth dilution method; format: functional
[10] = system: HaCaT; assay: Cytotoxicity against human HaCaT cells at 12.5 uM after 24 hrs by MTT assay relative to control; format: cell-based
[11] = system: HaCaT; assay: Cytotoxicity against human HaCaT cells at 25 uM after 24 hrs by MTT assay relative to control; format: cell-based
[12] = system: HaCaT; assay: Cytotoxicity against human HaCaT cells at 50 uM after 24 hrs by MTT assay relative to control; format: cell-based
[13] = system: HaCaT; assay: Cytotoxicity against human HaCaT cells at 1.56 to 6.25 uM after 24 hrs by MTT assay; format: cell-based
[14] = system: HaCaT; assay: Cytotoxicity against human HaCaT cells at 6.25 uM after 24 hrs by MTT assay relative to control; format: cell-based
[15] = system: Staphylococcus epidermidis; assay: Antimicrobial activity against Staphylococcus epidermidis ATCC 12228 assessed as membrane-perturbation measured every minute for 120 mins by SYTOX green fluorescence dye influx assay; format: functional, organism-based
[16] = system: Acinetobacter baumannii; assay: Antimicrobial activity against Acinetobacter baumannii ATCC 19606 assessed as induction of membrane-perturbation at MIC measured every minute for 120 mins by SYTOX green fluorescence dye influx assay; format: functional, organism-based; conditions: ATCC 19606 = CIP 70.34 = JCM 6841
[17] = system: Candida albicans; assay: Antimicrobial activity against Candida albicans ATCC 10231 assessed as induction of membrane-perturbation at MIC measured every minute for 10 mins by SYTOX green fluorescence dye influx assay; format: functional, organism-based
[18] = system: Escherichia coli; assay: Antimicrobial activity against multisensitive Escherichia coli clinical isolate 1 after 18 to 20 hrs by microbroth dilution method; format: functional
[19] = system: Escherichia coli; assay: Antimicrobial activity against multisensitive Escherichia coli clinical isolate 2 after 18 to 20 hrs by microbroth dilution method; format: functional
[20] = system: Pseudomonas aeruginosa; assay: Antimicrobial activity against multisensitive Pseudomonas aeruginosa after 18 to 20 hrs by microbroth dilution method; format: functional
[21] = system: Klebsiella pneumoniae; assay: Antimicrobial activity against multisensitive Klebsiella pneumoniae after 18 to 20 hrs by microbroth dilution method; format: functional
[22] = system: Staphylococcus aureus; assay: Antimicrobial activity against multisensitive Staphylococcus aureus after 18 to 20 hrs by microbroth dilution method; format: functional
[23] = system: Staphylococcus aureus; assay: Antimicrobial activity against beta-lactamase resistant Staphylococcus aureus after 18 to 20 hrs by microbroth dilution method; format: functional
[24] = system: Staphylococcus aureus; assay: Antimicrobial activity against macrolid resistant Staphylococcus aureus after 18 to 20 hrs by microbroth dilution method; format: functional
[25] = system: Staphylococcus aureus; assay: Antimicrobial activity against methicillin resistant Staphylococcus aureus clinical isolate 1 after 18 to 20 hrs by microbroth dilution method; format: functional
[26] = system: Staphylococcus aureus; assay: Antimicrobial activity against methicillin resistant Staphylococcus aureus clinical isolate 2 after 18 to 20 hrs by microbroth dilution method; format: functional
[27] = system: Candida albicans; assay: Antimicrobial activity against Candida albicans clinical isolate 1 after 18 to 20 hrs by microbroth dilution method; format: functional
[28] = system: Candida albicans; assay: Antimicrobial activity against Candida albicans clinical isolate 2 after 18 to 20 hrs by microbroth dilution method; format: functional
[29] = Hemolytic activity against human erythrocytes at 50 uM after 40 mins relative to control; format: ADME, cell-based, Erythrocyte; conditions: read-out: Activity
[30] = Hemolytic activity against human erythrocytes at 25 uM after 40 mins relative to control; format: ADME, cell-based, Erythrocyte; conditions: read-out: Activity
[31] = Hemolytic activity against human erythrocytes at 12.5 uM after 40 mins relative to control; format: ADME, cell-based, Erythrocyte; conditions: read-out: Activity
[32] = Hemolytic activity against human erythrocytes at 6.25 uM after 40 mins relative to control; format: ADME, cell-based, Erythrocyte; conditions: read-out: Activity
[33] = Hemolytic activity against human erythrocytes at 3.125 uM after 40 mins relative to control; format: ADME, cell-based, Erythrocyte; conditions: read-out: Activity
[34] = Metabolic stability in 90% human serum assessed as parent compound remaining at […] after 120 mins by RP-UHPLC analysis; format: ADME, cell-free; conditions: read-out: Stability

Molecule	MIC [1]	MIC [2]	MIC [3]	MIC [4]	MIC [5]	MIC [6]	MIC [7]	MIC [8]	MIC [9]	Activity [10]	Activity [11]	Activity [12]	Activity [13]	Activity [15]	Activity [16]	Activity [17]	also measured
CC[C@H](C)C(NC(=O)[C@H](CCCNC(=N)N)NC(=O)[C@H](CCCCN)NC(=O)[C@@H](CC(C)C)NC(=O)[C@H](Cc1ccccc1)NC(=O)[C@H](CCCCN)NC(=O)[C@H](CO)NC(=O)[C@H](Cc1ccccc1)NC(=O)[C@H](Cc1c[nH]c2ccccc12)NC(=O)[C@@H]1CCCN1C(=O)[C@@H](NC(=O)[C@@H](N)Cc1ccccc1)C(C)C)C(=O)N[C@@H](CC(C)C)C(N)=O (single isomer, unassigned)	3.12 µM (≈ 5.25 µg/mL)	12.5 µM (≈ 21 µg/mL)	12.5 µM (≈ 21 µg/mL)	6.25 µM (≈ 10.5 µg/mL)	3.12 µM (≈ 5.25 µg/mL)	6.25 µM (≈ 10.5 µg/mL)	3.12 µM (≈ 5.25 µg/mL)	1.56 µM (≈ 2.62 µg/mL)	1.56 µM (≈ 2.62 µg/mL)	49.3%	66.86%	96.79%	Non-Toxic	–	–	–	–
CCCC[C@@H](NC(=O)[C@@H](CC(C)C)NC(=O)[C@H](Cc1ccccc1)NC(=O)[C@H](CCCCN)NC(=O)[C@H](CO)NC(=O)[C@H](Cc1ccccc1)NC(=O)[C@H](Cc1c[nH]c2ccccc12)NC(=O)[C@@H]1CCCN1C(=O)[C@@H](NC(=O)[C@@H](N)Cc1ccccc1)C(C)C)C(=O)N[C@@H](CCCNC(=N)N)C(=O)NC(C(=O)N[C@@H](CC(C)C)C(N)=O)[C@@H](C)CC (single isomer, unassigned)	6.25 µM (≈ 10.4 µg/mL)	25 µM (≈ 41.6 µg/mL)	50 µM (≈ 83.3 µg/mL)	3.12 µM (≈ 5.2 µg/mL)	1.56 µM (≈ 2.6 µg/mL)	3.12 µM (≈ 5.2 µg/mL)	3.12 µM (≈ 5.2 µg/mL)	3.12 µM (≈ 5.2 µg/mL)	1.56 µM (≈ 2.6 µg/mL)	39.96%	72.81%	96.64%	–	–	–	–	Activity [14]: 15%
CC[C@H](C)C(NC(=O)[C@H](CCCNC(=N)N)NC(=O)[C@@H](CCCCN)NC(=O)[C@@H](CC(C)C)NC(=O)[C@H](Cc1ccccc1)NC(=O)[C@H](CCCCN)NC(=O)[C@H](CO)NC(=O)[C@H](Cc1ccccc1)NC(=O)[C@H](Cc1c[nH]c2ccccc12)NC(=O)[C@@H]1CCCN1C(=O)[C@@H](NC(=O)[C@@H](N)Cc1ccccc1)C(C)C)C(=O)N[C@@H](CC(C)C)C(N)=O (single isomer, unassigned)	6.25 µM (≈ 10.5 µg/mL)	12.5 µM (≈ 21 µg/mL)	12.5 µM (≈ 21 µg/mL)	12.5 µM (≈ 21 µg/mL)	3.12 µM (≈ 5.25 µg/mL)	12.5 µM (≈ 21 µg/mL)	3.12 µM (≈ 5.25 µg/mL)	1.56 µM (≈ 2.62 µg/mL)	1.56 µM (≈ 2.62 µg/mL)	0%	28.22%	87.9%	Non-Toxic	Active	Active	Active	MIC [18]: 25 µM (≈ 42 µg/mL); MIC [19]: 25 µM (≈ 42 µg/mL); MIC [20]: > 50 µM; MIC [21]: 50 µM (≈ 84 µg/mL); MIC [22]: 12.5 µM (≈ 21 µg/mL); MIC [23]: 25 µM (≈ 42 µg/mL); MIC [24]: 25 µM (≈ 42 µg/mL); MIC [25]: 25 µM (≈ 42 µg/mL); MIC [26]: 12.5 µM (≈ 21 µg/mL); MIC [27]: 12.5 µM (≈ 21 µg/mL); MIC [28]: 12.5 µM (≈ 21 µg/mL); hemolysis at 40 min, 50 µM [29]: 7%; hemolysis at 40 min, 25 µM [30]: 5%; hemolysis at 40 min, 12.5 µM [31]: 5%; hemolysis at 40 min, 6.25 µM [32]: 1%; hemolysis at 40 min, 3.125 µM [33]: 0%; remaining at 2 h [34]: 40%
CCCC[C@H](NC(=O)[C@@H](CC(C)C)NC(=O)[C@H](Cc1ccccc1)NC(=O)[C@H](CCCCN)NC(=O)[C@H](CO)NC(=O)[C@H](Cc1ccccc1)NC(=O)[C@H](Cc1c[nH]c2ccccc12)NC(=O)[C@@H]1CCCN1C(=O)[C@@H](NC(=O)[C@@H](N)Cc1ccccc1)C(C)C)C(=O)N[C@@H](CCCNC(=N)N)C(=O)NC(C(=O)N[C@@H](CC(C)C)C(N)=O)[C@@H](C)CC (single isomer, unassigned)	6.25 µM (≈ 10.4 µg/mL)	25 µM (≈ 41.6 µg/mL)	50 µM (≈ 83.3 µg/mL)	6.25 µM (≈ 10.4 µg/mL)	3.12 µM (≈ 5.2 µg/mL)	3.12 µM (≈ 5.2 µg/mL)	3.12 µM (≈ 5.2 µg/mL)	3.12 µM (≈ 5.2 µg/mL)	3.12 µM (≈ 5.2 µg/mL)	12.25%	65.86%	99.76%	Non-Toxic	–	–	–	–
H-FVQWFSKFLGRIL-NH2	–	–	–	–	–	–	–	–	–	–	–	–	–	Active	Active	Active	–
